Source: ChEMBL document CHEMBL5375995, “Discovery and Mechanistic Study of Novel Mycobacterium tuberculosis ClpP1P2 Inhibitors” (J Med Chem, 2023)
Values after ≈ are worked out from the molar mass of the structure shown. Active and inactive are the calls of the source. The calls are words filed in the database; no cut-off is given here.

Tests used:
[1] = system: Mycolicibacterium smegmatis; experiment: Antibacterial activity against wild-type Mycobacterium smegmatis mc2 155 harboring ClpP-tetoff mutant assessed as bacterial growth inhibition upto 512 uM incubated for 2 days in presence of ATc by Alamar blue staining based assay; type: functional, organism-based; details: time 2.0 day
[2] = target: T1, ClpP1P2 (Mycobacterium tuberculosis (strain ATCC 25618 / H37Rv)) (UniProt P9WPC5+P9WPC3); experiment: Binding affinity to N-terminal His6-SUMO-tagged Mtb ClpP1 (7 to 200 residues) expressed in Escherichia coli BL21(DE3) assessed as reduction in fluorescence intensity at 25 to 100 uM incubated for 30 mins in presence of Bz-LL by spectrophotometry relative to control; parameters: scale not given: the % may be the effect or the level left; details: dose 25-100 µM
[3] = Inhibition of N-terminal His6-SUMO-tagged Mycobacterium smegmatis ClpP1 (3 to 200 residues)/P2 (17 to 218 residues) expressed in Escherichia coli BL21(DE3) using Z-Gly-Gly-Leu-AM as substrate measured for 60 mins in presence of Bz-LL by fluorescence based assay; parameters: species or system Mycolicibacterium smegmatis
[4] = system: Mycobacterium tuberculosis; experiment: Antibacterial activity against Mycobacterium tuberculosis H37Ra assessed as bacterial growth inhibition incubated for 24 hrs by broth microdilution method; type: functional
[5] = target: ATP-dependent Clp protease ATP-binding subunit ClpC1 (Mycobacterium tuberculosis) (UniProt P9WPC9); experiment: Inhibition of N-terminal His6-tagged full-length Mtb ClpC1 creatine kinase activity expressed in Escherichia coli BL21(DE3) using creatine phosphate as substrate at 100 uM preincubated for 10 mins followed by substrate addition measured after 10 mins in presence of ADP by Kinase-Glo assay; details: time 20.0 min
[6] = system: Mycolicibacterium smegmatis; experiment: Antibacterial activity against Mycobacterium smegmatis mc2 155 harboring ClpC1 knockout assessed as bacterial growth inhibition incubated for 2 days by Alamar blue staining based assay; type: functional; details: mc2 155, 48 h, time 2 day
[7] = system: Mycobacterium tuberculosis; experiment: Binding affinity to N-terminal His6-SUMO-tagged Mtb ClpP1 (7 to 200 residues)/ClpP2 (13 to 214 residues) complex expressed in Escherichia coli BL21(DE3) assessed as reduction in fluorescence intensity at 25 to 100 uM incubated for 30 mins in presence of Bz-LL by spectrophotometry relative to control; parameters: scale not given: the % may be the effect or the level left; details: dose 25-100 µM
[8] = (§1) Selectivity index, ratio of IC50 for full-length human ClpP complex ([…]) expressed in Escherichia coli BL21(DE3) using Ac-WLA-AMC as substrate to IC50 for N-terminal His6-SUMO-tagged Mtb ClpP1 (7 to 200 residues)/ClpP2 (13 to 214 residues) complex expressed in Escherichia coli BL21(DE3) using Z-Gly-Gly-Leu-AMC as substrate
[9] = as §1, with “FITC-casein” for “Ac-WLA-AMC”
ClpP1P2 [10] = target: T2, ClpP1P2 (Mycobacterium tuberculosis (strain ATCC 25618 / H37Rv), UniProt P9WPC3+P9WPC5); experiment: Inhibition of N-terminal His6-SUMO-tagged Mtb ClpP1 (7 to 200 residues)/ClpP2 (13 to 214 residues) complex expressed in Escherichia coli BL21(DE3) using GFP-ssrA as substrate incubated for 3 hrs in presence of Bz-LL/ATP by Coomassie blue staining based assay
[11] = target: ATP-dependent Clp protease ATP-binding subunit ClpC1 (Mycobacterium tuberculosis) (UniProt P9WPC9); experiment: Inhibition of N-terminal His6-tagged full-length Mtb ClpC1 ATPase activity expressed in Escherichia coli BL21(DE3) at 100 uM in presence of PK/LDH/ATP/NADH by spectrophotometry
ClpP1P2 [12] = target: T2, ClpP1P2; experiment: Inhibition of N-terminal His6-SUMO-tagged Mtb ClpP1 (7 to 200 residues)/ClpP2 (13 to 214 residues) complex expressed in Escherichia coli BL21(DE3) using FITC-casein as substrate measured for 1 hr in presence of Bz-LL/ATP by fluorescence based assay
ClpP1P2 [13] = target: T2, ClpP1P2; experiment: Inhibition of N-terminal His6-SUMO-tagged Mtb ClpP1 (7 to 200 residues)/ClpP2 (13 to 214 residues) complex expressed in Escherichia coli BL21(DE3) using Z-Gly-Gly-Leu-AMC as substrate measured for 60 mins in presence of Bz-LL by fluorescence based assay
[14] = target: T1, ClpP1P2 (Mycobacterium tuberculosis (strain ATCC 25618 / H37Rv)); experiment: Inhibition of N-terminal His6-SUMO-tagged Mtb ClpP1 (7 to 200 residues)/ClpP2 (13 to 214 residues) complex expressed in Escherichia coli BL21(DE3) using GFP-ssrA as substrate measured for 1 hr in presence of Bz-LL/ATP by fluorescence based assay
[15] = system: Mycolicibacterium smegmatis; experiment: Antibacterial activity against wild-type Mycobacterium smegmatis mc2 155 assessed as bacterial growth inhibition incubated for 2 days by Alamar blue staining based assay; type: functional; details: mc2 155, 48 h, time 2 day
[16] = Inhibition of Staphylococcus aureus […] complex expressed in Escherichia coli BL21(DE3) using GFP-ssrA as substrate incubated for 3 hrs in presence of Bz-LL/ATP/ONC212 by Coomassie blue staining based assay
[17] = Inhibition of N-terminal His6-SUMO-tagged Mycobacterium smegmatis ClpP1 (3 to 200 residues)/P2 (17 to 218 residues) expressed in Escherichia coli BL21(DE3)/C1 using Z-Gly-Gly-Leu-AM as substrate measured for 60 mins in presence of Bz-LL by fluorescence based assay; parameters: species or system Mycolicibacterium smegmatis
[18] = system: Mycolicibacterium smegmatis; experiment: Antibacterial activity against wild-type Mycobacterium smegmatis mc2 155 assessed as bacterial growth inhibition upto 512 uM incubated for 2 days in presence of ATc by Alamar blue staining based assay; type: functional, organism-based; details: time 2.0 day
[19] = system: Mycolicibacterium smegmatis; experiment: Antibacterial activity against Mycobacterium smegmatis mc2 155 harboring ClpX knockout assessed as bacterial growth inhibition incubated for 2 days by Alamar blue staining based assay; type: functional; details: mc2 155, 48 h, time 2 day
ClpP1P2 [20] = target: T2, ClpP1P2; experiment: Binding affinity to N-terminal His6-SUMO-tagged Mtb ClpP1 (7 to 200 residues)/ClpP2 (13 to 214 residues) complex expressed in Escherichia coli BL21(DE3) assessed as increase in thermal stability measured at 25 to 110 degreeC in presence of Bz-LL by DSF assay

T2 sequence (P9WPC5 whole entry, the tested form may be a part): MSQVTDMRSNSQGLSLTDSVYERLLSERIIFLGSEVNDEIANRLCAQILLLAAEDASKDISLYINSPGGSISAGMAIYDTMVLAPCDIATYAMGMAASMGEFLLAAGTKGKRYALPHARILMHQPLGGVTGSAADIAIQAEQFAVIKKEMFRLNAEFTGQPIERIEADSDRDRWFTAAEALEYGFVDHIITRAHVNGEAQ
T2 sequence (P9WPC3 whole entry, the tested form may be a part): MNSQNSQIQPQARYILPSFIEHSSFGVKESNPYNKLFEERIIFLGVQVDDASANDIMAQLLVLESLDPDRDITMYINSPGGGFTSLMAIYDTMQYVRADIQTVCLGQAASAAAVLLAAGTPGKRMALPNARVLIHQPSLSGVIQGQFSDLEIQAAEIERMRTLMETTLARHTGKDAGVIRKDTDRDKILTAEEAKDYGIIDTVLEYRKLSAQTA
ATP-dependent Clp protease ATP-binding subunit ClpC1 (Mycobacterium tuberculosis), sequence (P9WPC9 whole entry, the tested form may be a part): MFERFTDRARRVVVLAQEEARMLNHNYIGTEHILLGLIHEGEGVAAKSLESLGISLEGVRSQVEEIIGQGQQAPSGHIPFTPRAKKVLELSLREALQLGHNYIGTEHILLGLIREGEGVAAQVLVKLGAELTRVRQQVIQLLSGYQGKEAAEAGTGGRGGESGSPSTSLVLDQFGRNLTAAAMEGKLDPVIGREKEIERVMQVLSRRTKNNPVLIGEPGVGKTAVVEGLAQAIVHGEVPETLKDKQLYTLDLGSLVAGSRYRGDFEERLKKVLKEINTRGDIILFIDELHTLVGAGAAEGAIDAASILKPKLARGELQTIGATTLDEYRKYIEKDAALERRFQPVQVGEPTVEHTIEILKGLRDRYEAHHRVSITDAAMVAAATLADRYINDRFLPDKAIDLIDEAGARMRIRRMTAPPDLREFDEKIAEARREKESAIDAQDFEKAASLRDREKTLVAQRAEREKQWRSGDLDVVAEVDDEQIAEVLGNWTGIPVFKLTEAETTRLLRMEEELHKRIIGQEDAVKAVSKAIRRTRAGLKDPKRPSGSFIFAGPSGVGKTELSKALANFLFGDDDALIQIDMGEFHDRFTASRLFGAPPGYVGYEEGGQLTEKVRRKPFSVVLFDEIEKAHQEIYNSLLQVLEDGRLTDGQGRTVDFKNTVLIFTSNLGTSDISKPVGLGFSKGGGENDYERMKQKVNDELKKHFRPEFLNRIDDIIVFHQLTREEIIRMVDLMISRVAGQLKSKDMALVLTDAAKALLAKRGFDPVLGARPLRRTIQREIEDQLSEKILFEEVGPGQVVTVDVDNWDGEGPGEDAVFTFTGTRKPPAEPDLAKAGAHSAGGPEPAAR

In the case of `COc1cc2c(Oc3ccc4[nH]c(C)cc4c3F)ncnc2cc1OCCCN1CCC(c2ccc(C(N)=O)cc2)CC1`, the “growth inhibition (GI)” value [1] is reported as “Active”, the Activity [2] is reported as 10% and the IC50 [3] is reported as 1.8 µM. For the same compound, the MIC [4] was 12.5 µM (≈ 7.3 µg/mL), the inhibition [5] was “inactive” and the MIC [6] was 42.8 µg/mL (≈ 73.3 µM). For the same compound, the Activity [7] was 60%, the Ratio IC50 [8] was 12.1 and the Ratio IC50 [9] was 18.4. The IC50 (ClpP1P2 [10]) was greater than 100 µM, the inhibition [11] was “inactive” and the IC50 (ClpP1P2 [12]) was 8.9 µM. The IC50 (ClpP1P2 [13]) was 2.6 µM, the inhibition [14] was “Active” and the MIC [15] was greater than 439 µg/mL. For the same compound, the IC50 [16] was 193 µM, the IC50 [17] was 22.1 µM and the “growth inhibition (GI)” value [18] was “Active”. For the same compound, the MIC [19] was 85.7 µg/mL (≈ 147 µM) and the EC50 (ClpP1P2 [20]) was 12.1 µM.
